Laboratory results: the supplement of paper PMC10307832

Experiments:
Experiment in all cases: relative viability (nuclei count vs DMSO), 5 days (fraction); higher = more cells survive
[1] = compound: COc1cc2nc(N3CCCN(C)CC3)nc(NC3CCN(Cc4ccccc4)CC3)c2cc1OC + CC(C)C[C@H](NC(=O)[C@H](Cc1ccccc1)NC(=O)c1cnccn1)B(O)O [Bortezomib] (partner 0.002 µM)
How it was run: (§1)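 Lung cancer cell lines in 1536-well plates got either a single drug or a fixed anchor-drug dose together with five library-drug doses (not always all listed) in √10 steps, by pin tool, on the day after seeding. Nuclei were counted after 5 days, and relative viability is the treated-to-vehicle ratio of nuclei counts. Values are medians of duplicate plates.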

[2] = compound: COc1cc2nc(N3CCCN(C)CC3)nc(NC3CCN(Cc4ccccc4)CC3)c2cc1OC + CS(=O)(=O)CCNCc1ccc(-c2ccc3ncnc(Nc4ccc(OCc5cccc(F)c5)c(Cl)c4)c3c2)o1 [Lapatinib] (partner 2 µM)
How it was run: as §1

[3] = compound: COc1cc2nc(N3CCCN(C)CC3)nc(NC3CCN(Cc4ccccc4)CC3)c2cc1OC + C[C@]1(O)C[C@@H](c2nc(-c3ccc4ccc(-c5ccccc5)nc4c3)c3c(N)nccn32)C1 [Linsitinib] (partner 1 µM)
How it was run: as §1

[4] = compound: COc1cc2nc(N3CCCN(C)CC3)nc(NC3CCN(Cc4ccccc4)CC3)c2cc1OC + Cc1cc(Nc2cc(N3CCN(C)CC3)nc(Sc3ccc(NC(=O)C4CC4)cc3)n2)n[nH]1 [Tozasertib] (partner 0.1 µM)
How it was run: as §1

[5] = compound: COc1cc2nc(N3CCCN(C)CC3)nc(NC3CCN(Cc4ccccc4)CC3)c2cc1OC + O=C(c1cc(Cc2n[nH]c(=O)c3ccccc23)ccc1F)N1CCN(C(=O)C2CC2)CC1 [Olaparib] (partner 8 µM)
How it was run: as §1

In the case of HARA, the relative viability ([1]; first compound 0.2 µM) is reported as 1.03, the relative viability ([1]; first compound 0.6325 µM) is reported as 1.07 and the relative viability ([1]; first compound 2 µM) is reported as 1.28. The relative viability ([1]; first compound 6.325 µM) was 1.11, the relative viability ([2]; first compound 0.2 µM) was 0.793 and the relative viability ([2]; first compound 0.6325 µM) was 0.86. The relative viability ([2]; first compound 2 µM) was 0.823, the relative viability ([2]; first compound 6.325 µM) was 0.804 and the relative viability ([3]; first compound 0.2 µM) was 0.798. The relative viability ([3]; first compound 0.6325 µM) was 0.889, the relative viability ([3]; first compound 2 µM) was 1 and the relative viability ([3]; first compound 6.325 µM) was 0.948. It also gave a relative viability ([4]; first compound 0.2 µM) of 0.123, a relative viability ([4]; first compound 0.6325 µM) of 0.125 and a relative viability ([4]; first compound 2 µM) of 0.0997. For the same cell line, the relative viability ([4]; first compound 6.325 µM) was 0.236, the relative viability ([5]; first compound 0.2 µM) was 0.79 and the relative viability ([5]; first compound 0.6325 µM) was 1.1. For the same cell line, the relative viability ([5]; first compound 2 µM) was 0.832 and the relative viability ([5]; first compound 6.325 µM) was 1.05.

NCI-H2087 was tested, and the relative viability ([1]; first compound 0.2 µM) was 0.868, the relative viability ([1]; first compound 0.6325 µM) was 0.795 and the relative viability ([1]; first compound 2 µM) was 0.884. It also gave a relative viability ([1]; first compound 6.325 µM) of 0.675, a relative viability ([2]; first compound 0.2 µM) of 1.18 and a relative viability ([2]; first compound 0.6325 µM) of 0.744. The relative viability ([2]; first compound 2 µM) was 1.08, the relative viability ([2]; first compound 6.325 µM) was 0.964 and the relative viability ([3]; first compound 0.2 µM) was 0.908. For the same cell line, the relative viability ([3]; first compound 0.6325 µM) was 0.706, the relative viability ([3]; first compound 2 µM) was 1.05 and the relative viability ([3]; first compound 6.325 µM) was 0.899. The relative viability ([4]; first compound 0.2 µM) was 0.228, the relative viability ([4]; first compound 0.6325 µM) was 0.269 and the relative viability ([4]; first compound 2 µM) was 0.292. For the same cell line, the relative viability ([4]; first compound 6.325 µM) was 0.304, the relative viability ([5]; first compound 0.2 µM) was 0.633 and the relative viability ([5]; first compound 0.6325 µM) was 0.615. The relative viability ([5]; first compound 2 µM) was 0.706 and the relative viability ([5]; first compound 6.325 µM) was 0.594.

Cell Line NCI-H1437 has a relative viability ([1]; first compound 0.2 µM) of 0.614, a relative viability ([1]; first compound 0.6325 µM) of 0.683 and a relative viability ([1]; first compound 2 µM) of 0.65. It also gave a relative viability ([1]; first compound 6.325 µM) of 0.459, a relative viability ([2]; first compound 0.2 µM) of 0.754 and a relative viability ([2]; first compound 0.6325 µM) of 0.888. It also gave a relative viability ([2]; first compound 2 µM) of 0.966, a relative viability ([2]; first compound 6.325 µM) of 0.698 and a relative viability ([3]; first compound 0.2 µM) of 1.06. The relative viability ([3]; first compound 0.6325 µM) was 0.956, the relative viability ([3]; first compound 2 µM) was 1.11 and the relative viability ([3]; first compound 6.325 µM) was 0.891. The relative viability ([4]; first compound 0.2 µM) was 0.442, the relative viability ([4]; first compound 0.6325 µM) was 0.433 and the relative viability ([4]; first compound 2 µM) was 0.469. For the same cell line, the relative viability ([4]; first compound 6.325 µM) was 0.461, the relative viability ([5]; first compound 0.2 µM) was 0.626 and the relative viability ([5]; first compound 0.6325 µM) was 0.628. It also gave a relative viability ([5]; first compound 2 µM) of 0.623 and a relative viability ([5]; first compound 6.325 µM) of 0.574.

Cell Line NCI-H650 has a relative viability ([1]; first compound 0.2 µM) of 0.752, a relative viability ([1]; first compound 0.6325 µM) of 0.739 and a relative viability ([1]; first compound 2 µM) of 1.05. The relative viability ([1]; first compound 6.325 µM) was 0.694, the relative viability ([2]; first compound 0.2 µM) was 0.731 and the relative viability ([2]; first compound 0.6325 µM) was 0.839. The relative viability ([2]; first compound 2 µM) was 1.3, the relative viability ([2]; first compound 6.325 µM) was 0.692 and the relative viability ([3]; first compound 0.2 µM) was 0.866. For the same cell line, the relative viability ([3]; first compound 0.6325 µM) was 0.77, the relative viability ([3]; first compound 2 µM) was 0.943 and the relative viability ([3]; first compound 6.325 µM) was 0.534. The relative viability ([4]; first compound 0.2 µM) was 0.773, the relative viability ([4]; first compound 0.6325 µM) was 0.714 and the relative viability ([4]; first compound 2 µM) was 0.793. For the same cell line, the relative viability ([4]; first compound 6.325 µM) was 0.709, the relative viability ([5]; first compound 0.2 µM) was 0.445 and the relative viability ([5]; first compound 0.6325 µM) was 0.356. The relative viability ([5]; first compound 2 µM) was 0.434 and the relative viability ([5]; first compound 6.325 µM) was 0.396.

COR-L23 showed a relative viability ([1]; first compound 0.2 µM) of 0.956, a relative viability ([1]; first compound 0.6325 µM) of 0.884 and a relative viability ([1]; first compound 2 µM) of 1.11. The relative viability ([1]; first compound 6.325 µM) was 0.933, the relative viability ([2]; first compound 0.2 µM) was 0.848 and the relative viability ([2]; first compound 0.6325 µM) was 0.849. The relative viability ([2]; first compound 2 µM) was 1.1, the relative viability ([2]; first compound 6.325 µM) was 0.92 and the relative viability ([3]; first compound 0.2 µM) was 0.966. The relative viability ([3]; first compound 0.6325 µM) was 1.02, the relative viability ([3]; first compound 2 µM) was 1.05 and the relative viability ([3]; first compound 6.325 µM) was 1. The relative viability ([4]; first compound 0.2 µM) was 0.24, the relative viability ([4]; first compound 0.6325 µM) was 0.195 and the relative viability ([4]; first compound 2 µM) was 0.319. The relative viability ([4]; first compound 6.325 µM) was 0.457, the relative viability ([5]; first compound 0.2 µM) was 0.348 and the relative viability ([5]; first compound 0.6325 µM) was 0.38. The relative viability ([5]; first compound 2 µM) was 0.414 and the relative viability ([5]; first compound 6.325 µM) was 0.339.

COR-L 105 was tested, and the relative viability ([1]; first compound 0.2 µM) was 0.787, the relative viability ([1]; first compound 0.6325 µM) was 0.835 and the relative viability ([1]; first compound 2 µM) was 0.591. The relative viability ([1]; first compound 6.325 µM) was 0.404, the relative viability ([2]; first compound 0.2 µM) was 0.395 and the relative viability ([2]; first compound 0.6325 µM) was 0.424. It also gave a relative viability ([2]; first compound 2 µM) of 0.322, a relative viability ([2]; first compound 6.325 µM) of 0.278 and a relative viability ([3]; first compound 0.2 µM) of 1.09. The relative viability ([3]; first compound 0.6325 µM) was 0.888, the relative viability ([3]; first compound 2 µM) was 0.833 and the relative viability ([3]; first compound 6.325 µM) was 0.628. The relative viability ([4]; first compound 0.2 µM) was 0.412, the relative viability ([4]; first compound 0.6325 µM) was 0.429 and the relative viability ([4]; first compound 2 µM) was 0.385. For the same cell line, the relative viability ([4]; first compound 6.325 µM) was 0.353, the relative viability ([5]; first compound 0.2 µM) was 0.632 and the relative viability ([5]; first compound 0.6325 µM) was 0.626. For the same cell line, the relative viability ([5]; first compound 2 µM) was 0.624 and the relative viability ([5]; first compound 6.325 µM) was 0.372.

201T gave a relative viability ([1]; first compound 0.2 µM) of 1.13, a relative viability ([1]; first compound 0.6325 µM) of 1.14 and a relative viability ([1]; first compound 2 µM) of 1.17. For the same cell line, the relative viability ([1]; first compound 6.325 µM) was 1.07, the relative viability ([2]; first compound 0.2 µM) was 0.95 and the relative viability ([2]; first compound 0.6325 µM) was 1.04. The relative viability ([2]; first compound 2 µM) was 1.08, the relative viability ([2]; first compound 6.325 µM) was 0.982 and the relative viability ([3]; first compound 0.2 µM) was 1.06. The relative viability ([3]; first compound 0.6325 µM) was 1.03, the relative viability ([3]; first compound 2 µM) was 1.04 and the relative viability ([3]; first compound 6.325 µM) was 1. For the same cell line, the relative viability ([4]; first compound 0.2 µM) was 0.973, the relative viability ([4]; first compound 0.6325 µM) was 0.908 and the relative viability ([4]; first compound 2 µM) was 0.946. The relative viability ([4]; first compound 6.325 µM) was 0.924, the relative viability ([5]; first compound 0.2 µM) was 0.849 and the relative viability ([5]; first compound 0.6325 µM) was 0.853. The relative viability ([5]; first compound 2 µM) was 0.875 and the relative viability ([5]; first compound 6.325 µM) was 0.802.

With HCC-44 the relative viability ([1]; first compound 0.2 µM) was 0.935, the relative viability ([1]; first compound 0.6325 µM) was 0.85 and the relative viability ([1]; first compound 2 µM) was 0.991. The relative viability ([1]; first compound 6.325 µM) was 0.909, the relative viability ([2]; first compound 0.2 µM) was 1.01 and the relative viability ([2]; first compound 0.6325 µM) was 0.989. It also gave a relative viability ([2]; first compound 2 µM) of 1.05, a relative viability ([2]; first compound 6.325 µM) of 1.04 and a relative viability ([3]; first compound 0.2 µM) of 0.688. For the same cell line, the relative viability ([3]; first compound 0.6325 µM) was 0.549, the relative viability ([3]; first compound 2 µM) was 0.786 and the relative viability ([3]; first compound 6.325 µM) was 0.695. It also gave a relative viability ([4]; first compound 0.2 µM) of 0.973, a relative viability ([4]; first compound 0.6325 µM) of 0.922 and a relative viability ([4]; first compound 2 µM) of 1.25. The relative viability ([4]; first compound 6.325 µM) was 1.22, the relative viability ([5]; first compound 0.2 µM) was 0.974 and the relative viability ([5]; first compound 0.6325 µM) was 1.02. It also gave a relative viability ([5]; first compound 2 µM) of 0.953 and a relative viability ([5]; first compound 6.325 µM) of 0.977.
